{"source": "patent US20220119868A1", "about": "“PROFILING RNA-SMALL MOLECULE BINDING SITES WITH OLIGONUCLEOTIDES” (priority 2018, published 2022)", "key": {"[1]": {"tested_on": "RNA library A (5-nucleotide hairpin library)", "assay": "2DCS selection with LOGOS analysis", "assay_type": "binding", "conditions": "5-nucleotide hairpins", "excerpt": "(§1) Identification of RNA-binding Small Molecules by 2DCS. […] We have previously validated the secondary structures formed by members of RNA libraries by enzymatic mapping^8, 12, 34. These discrete RNA motifs were selected because they are present in cellular RNAs. Due to the library-versus-library nature of these studies, they represent the largest screens completed to date, probing >52,000,000 interactions. Of the 1,987 compounds probed, 239 bound RNA (12.0%).\nA final screen was then completed in which the 91 array-immobilized compounds were incubated with all five RNA motif libraries separately in the presence of oligonucleotide competitors F-J, d(AT)11 and d(GC)11. Oligonucleotides F-J mimic regions common to all library members, restricting binding to the randomized regions. (Note: oligonucleotide J was not used for hairpin selections.) After rigorous washing to remove unbound RNAs, bound RNAs were harvested and identified by RNA-seq. By completing selections under conditions of high oligonucleotides stringency (by use of excess competitor oligonucleotides), these studies identified small molecules that bound RNA motifs avidly. A challenge in the small molecule RNA-targeting area has been the development and identification of selective interactions between small molecules and RNAs. In myriad studies, 2DCS has defined selective RNA motif-small molecule interactions with varied affinities^11, 12, 35, 36.\nIdentification of Privileged RNA Space by RNA-Seq. Using RNA-seq, a large sequencing dataset was obtained for each pool of RNAs that were specifically bound to each small molecule. RNA libraries A, B, C, D, and E had at least 12.1-fold (average: 133.1±111.8), 6.7-fold (average: 80.8±78.7), 9.9-fold (average: 103.5±110.6), 7.2-fold (average: 75.7±65.6), and 6.0-fold (average: 36.3±31.6) coverage for each small molecule selection, respectively, as compared to the number of unique sequences within the corresponding RNA library. It was previously shown that at least 6-fold coverage is required to generate binding landscape maps^12. RNA-seq data were then analyzed by High Throughput Structure-Activity Relationships Through Sequencing (HiT-StARTS)^12 to identify the privileged RNA motifs that bind each small molecule. Briefly, the frequency of occurrence of a selected RNA was compared to the frequency of occurrence of the same RNA from RNA-seq analysis of the starting RNA library to account for biases arising during transcription and RT-PCR. This pooled population comparison affords the parameter Zobs, a metric of statistical confidence. A large, positive Zobs indicates a strong preference for binding the motif while a negative Zobs indicates a strong preference against binding the motif. A Fitness Score is assigned by normalizing the Zobs values to the most statistically significant small molecule-RNA interaction to 100. […] Structure-Activity Relationships (SAR). Next, the most privileged RNA motif binders and the most discriminated against RNA motifs (non-binders) for each compound selection was analyzed by generating LOGOS from the highest and lowest 0.5% of Zobs scores^37. By comparing the LOGOS for related compounds, or DiffLogos, SAR can be defined. Indeed, various hit compounds differ by a single functional group, including compounds A and B (FIG. 5). […] In contrast, the RNA motifs most hindered from binding compounds 1 and 2 (discriminated against) are quite different (FIG. 5B).\nFour compounds that share an indolylpyrimidine-2,4-diamine core bound members of A (5-nucleotide hairpin library).\nOligonucleotides. All DNA oligonucleotides were purchased from Integrated DNA Technologies, Inc. (IDT) and used without further purification. RNA oligonucleotide competitors were purchased from Dharmacon and de-protected according to the manufacturer's standard procedure. All oligonucleotide solutions were prepared with NANOpure water. […]"}, "[2]": {"biological_target": "HCV RNA motif 5′GUG3′/3′C_C5′ (SL I and SL III)", "assay": "In solution, fluorescence-based binding affinity assay, HCV RNA motifs", "parameters": "species or system Hepatitis C virus", "excerpt": "(§2) The compounds bind their cognate loops in the 3′ UTR with mid-nanomolar to low micromolar affinities (Table 1). It was next determined if the identified compounds could inhibit HCV RNA replication in HCV subgenomic replicon cells, in particular SGR-Neo-RLuc-JFH1-2A replicon cells established in Huh-7.5 (human hepatoma cells). In this system, an autonomously replicating viral RNA replicon is used to monitor efficiently RNA replication of the virus in the absence of spread of viral RNA to adjacent cells. This is achieved by replacing the structural proteins required to assembly progeny virions with a drug selectable marker (Neo) and a Renilla luciferase (RLuc) reporter gene. Once this replicon has been delivered to human hepatoma cells and selection with G418 (conferred by Neo selectable marker) has occurred, the expression and Renilla luciferase activity is directly correlated with the level of HCV replication^57.\n(§3) where n1 is the size of Population 1 (number of sequencing reads for a given RNA from RNA-seq analysis of the selected library), n2 is the size of Population 2 (number of sequencing reads for the same RNA from RNA-seq analysis of the starting library), p1 is the observed proportion of Population 1 (the number of reads for a given RNA from selected library/total number of reads), and p2 is the observed proportion for Population 2 (the number of reads for the same RNA in the starting library/total number of reads). Generation of Logos and DiffLogos: Zobs corresponding to the highest (enriched) 0.5% and lowest (discriminated against) 0.5% scores were analyzed to generate consensus sequences, or Logos. The resulting list of sequences were converted to position weight matrix (PWM) lists for each compound. “Enriched” and “discriminated” sequences were kept separate using JMP®, Version <13.2.1>. SAS Institute Inc., Cary, N.C., 1989-2007. The R package Difflogo,^16 which is part of Bioconductor, was utilized to create the sequence logos from PWM lists for each compound and visually compare the differences between them. Binding Affinity Measurements. Dissociation constants were determined using an in solution, fluorescence-based assay. […] Serial dilutions (1:2) of the small molecule were then completed in 1× Assay Buffer supplemented with 1 mM MgCl2. The solutions were incubated for 30 min at room temperature, transferred to a 96-well plate, and fluorescence intensity measured on a BioTek-FLx800 plate reader. The change in fluorescence intensity as a function of small molecule concentration was fit to a one site binding model per equation 3: […]\n(§4) Effect of compounds on HCV replication. […] Cytotoxicity assays. […] Oligonucleotide profiling of target engagement in vitro. […] Primers can be found in Table 4. […] Inhibition of kinases. […] . Figure S7C)."}, "[3]": {"biological_target": "HCV RNA motif 5′UAG3′/3′A_C5′ (SL I)", "assay": "In solution, fluorescence-based binding affinity assay, HCV RNA motifs", "parameters": "species or system Hepatitis C virus", "excerpt": "as §2, §3, §4"}, "[4]": {"biological_target": "HCV RNA motif 5′CUG3′/3′G_C5′ (SL II)", "assay": "In solution, fluorescence-based binding affinity assay, HCV RNA motifs", "parameters": "species or system Hepatitis C virus", "excerpt": "as §2, §3, §4"}, "panel of 22 kinases": {"tested_on": "panel of 22 kinases", "assay": "In vitro inhibition of a panel of kinases", "assay_type": "biochemical", "conditions": "20 μM; panel of 22 kinases"}, "[5]": {"tested_on": "HCV replication, SGR-Neo-RLuc-JFH1-2A replicon cells established in Huh-7.5", "assay": "HCV replication in subgenomic replicon cells (Renilla luciferase)", "assay_type": "cell-based, Hepatitis C virus", "conditions": "Hepatitis C virus, Huh7.5; replicon cells, luciferase activity; read-out: IC50, inhibition of HCV replication", "excerpt": "as §2\nThey were therefore assayed for their ability to inhibit HCV replication using this replicon system, with DMSO vehicle and 2′-C-methyladenosine^17 triphosphate serving as negative and positive controls, respectively.\nas §4"}, "RNA motif libraries A-E": {"tested_on": "RNA motif libraries A-E", "assay": "2DCS: array-immobilized small molecules incubated with RNA motif libraries", "assay_type": "binding", "conditions": "libraries C-E", "excerpt": "as §1\nA final screen was then completed in which the 91 array-immobilized compounds were incubated with all five RNA motif libraries separately in the presence of oligonucleotide competitors F-J, d(AT)11 and d(GC)11. Oligonucleotides F-J mimic regions common to all library members, restricting binding to the randomized regions. (Note: oligonucleotide J was not used for hairpin selections.) After rigorous washing to remove unbound RNAs, bound RNAs were harvested and identified by RNA-seq. […]\nIdentification of Privileged RNA Space by RNA-Seq. […] RNA-seq data were then analyzed by High Throughput Structure-Activity Relationships Through Sequencing (HiT-StARTS)^12 to identify the privileged RNA motifs that bind each small molecule. […] Next, the most privileged RNA motif binders and the most discriminated against RNA motifs (non-binders) for each compound selection was analyzed by generating LOGOS from the highest and lowest 0.5% of Zobs scores^37. […]"}}}
{"smiles": "Cn1ccc2cc(-c3cc(NCc4cccnc4)nc(N)n3)ccc21", "note": "[Compound 6]", "values": [{"measurement": "nucleotide preference in position 4 (LOGOS)", "setting": "[1]", "value": "G≈U>>A or C"}]}
{"smiles": "O=C(Nc1cc(C2=NCCN2)cc(C2=NCCN2)c1)c1ccc(C(=O)Nc2cc(C3=NCCN3)cc(C3=NCCN3)c2)cc1", "note": "[Compound 9]", "values": [{"measurement": "Affinity", "setting": "[2]", "value": "N.B."}, {"measurement": "Kd", "setting": "[3]", "value": "1.3 ± 0.5", "unit": "µM"}, {"measurement": "Affinity", "setting": "[4]", "value": "N.B."}, {"measurement": "kinases inhibited in the panel", "setting": "panel of 22 kinases", "value": "No kinases were significantly inhibited"}, {"measurement": "IC50", "setting": "[5]", "value": "> 100", "unit": "µM"}]}
{"smiles": "COc1cc(Nc2cc(-c3ccc4c(ccn4C)c3)nc(N)n2)cc(OC)c1OC", "note": "[Compound 4]", "values": [{"measurement": "nucleotide preference in position 1 (LOGOS)", "setting": "[1]", "value": "strong preference for G"}, {"measurement": "nucleotide preference in position 4 (LOGOS)", "setting": "[1]", "value": "G>C>>A or U"}]}
{"smiles": "C[C@@]1(O)[C@H](O)[C@@H](CO)O[C@H]1n1cnc2c(N)ncnc21", "note": "[2′-C-methyladenosine, reference compound]", "values": [{"measurement": "IC50", "setting": "[5]", "value": "4.5 ± 0.1", "unit": "µM"}]}
{"smiles": "CNc1nc(Nc2ccc(C3=NCCN3)cc2)nc(Nc2ccc(C3=NCCN3)cc2)n1", "note": "[Compound 2]", "values": [{"measurement": "closing base pair preference (LOGOS)", "setting": "RNA motif libraries A-E", "value": "potential preference for GU closing base pairs"}]}
{"smiles": "Cn1ccc2cc(-c3cc(NCc4cccc(C(F)(F)F)c4)nc(N)n3)ccc21", "note": "[Compound 5]", "values": [{"measurement": "nucleotide preference in position 4 (LOGOS)", "setting": "[1]", "value": "G>U>>A or C"}]}
{"smiles": "O=C(Nc1cccc(C2=NCCN2)c1)c1ccc(-c2ccc(C(=O)Nc3cccc(C4=NCCN4)c3)cc2)cc1", "note": "[Compound 10]", "values": [{"measurement": "Kd", "setting": "[2]", "value": "3.35 ± 0.77", "unit": "µM"}, {"measurement": "Kd", "setting": "[3]", "value": "0.46 ± 0.14", "unit": "µM"}, {"measurement": "Kd", "setting": "[4]", "value": "7.1 ± 4.2", "unit": "µM"}, {"measurement": "kinases inhibited in the panel", "setting": "panel of 22 kinases", "value": "No kinases were significantly inhibited"}, {"measurement": "IC50", "setting": "[5]", "value": "19 ± 2", "unit": "µM"}]}
{"smiles": "Cn1ccc2cc(-c3cc(NCc4nc5ccccc5[nH]4)nc(N)n3)ccc21", "note": "[Compound 3]", "values": [{"measurement": "nucleotide preference in position 1 (LOGOS)", "setting": "[1]", "value": "strong preference for G"}, {"measurement": "nucleotide preference in position 4 (LOGOS)", "setting": "[1]", "value": "G>U>>A or C"}]}
